We go through ten molecules from patent US12391768B2, “Antibodies to ticagrelor and methods of use” (MEDIMMUNE LIMITED, priority 2014, dated 2025).

Residue numbers refer to the chain shown, from its start. Where two headings read alike, the source gives them in different places. Where only a bound is given, the exact number is not on record here.

Data set [1] deals with TICA0049 Fab. Kind of data set: HTRF competition binding selectivity assay, TICA0049 His-Fab. More on the design: species or system human. Here is the method: (§1) Total Binding control wells were set up which contained all of the assay components above except that 5 ul assay buffer was added in place of the test selectivity compound addition. Negative Binding control wells were set up which contained all of the assay components included in the Total Binding control wells except that 5ul assay buffer was added in place of the His-Fab addition. Test compound serial titrations were either ½ or ⅓ depending on the particular experiment and top final assay compound concentrations were optimized on a compound specific basis. The concentration of biotinylated ticagrelor and His-Fab was optimized on a Fab specific basis in separate experiments. For the four Fabs investigated at the end of the lead isolation phase (TICA0010, TICA0049, TICA0053 and TICA0072) the final assay reagent concentrations used are set out in Table 1 below:
(§2) For the two Fabs investigated at the end of the lead optimization phase (TICA0162 and TICA0212) the final assay reagent concentrations used were 5nM biotinylated ticagrelor and 1 nM His Fab in both cases. […] In order to enable subsequent normalization of data to correct for any such vehicle related effects parallel titrations of DMSO alone were included in most experiments in which the final assay DMSO concentrations mirrored those of the test compound serial dilutions. At the end of the set up procedure that assay was incubated for 3hrs at RT before being read on an Envision plate reader using a standard read protocol.
(§3) The negative ratio value used in the calculation of % Delta F was derived from the Negative Binding control wells. % Delta F values were then used to calculate % Specific Binding values according to the equation below: Specific Binding (%)={(Sample Delta F−Negative Binding Delta F)/(Total Binding Delta F−Negative Binding Delta F)}×100
(§4) For standard calculations of % Specific Binding Total Binding Delta F was taken from Total Binding control wells which contained all of the aforementioned components of the assay but without inclusion of any competing test compound.
(§5) In those experiments where DMSO normalization was applied DMSO normalised % Specific Binding was calculated essentially according to the equation above except that in this case Total Binding Delta F was taken from wells containing all of the components in the Total Binding control wells as well as DMSO at a concentration equivalent to that in the relevant sample well.
(§6) In a second series of experiments further selectivity data was generated for TICA0049 and TICA0072 Fabs in which a subset of four of the twelve compounds listed in FIG. 4 were retested along with ticagrelor, TAM and TIM and several adenosine related compounds. Here, in a refinement to the earlier investigations in Table 2, experiments were designed in order to enable normalisation of percent specific binding values to correct for any non-specific vehicle related effects due to DMSO. Example plotted data from this second series of experiments is shown in FIG. 5A-F along with tabulated IC50 values in Table 3.

The conditions of data set [2]: human, in vivo; cited from earlier work.
For data set [3], the target named is TICA0162 Fab. Kind of data set: HTRF competition binding selectivity assay, TICA0162 His-Fab. Also noted: species or system human. The conditions noted are these: Table 7, DMSO normalised; 5 nM biotinylated ticagrelor, 1 nM His Fab; read-out: IC50 (uM) for inhibition of biotinylated ticagrelor binding to TICA0162 Fab. As for the experimental part: as §1
as §2, with “protocol. […]” for “protocol.”
as §5

Data set [4] addresses TICA0072 Fab. Kind of data set: HTRF competition binding selectivity assay, TICA0072 His-Fab. The following applies: second series (Table 3), DMSO normalised. Also noted: species or system human. As for the experimental part: as §1, §2, §3, §4, §5, §6
Data set [5] has as its target TICA0010 Fab. Kind of data set: HTRF competition binding selectivity assay, TICA0010 His-Fab. More on the design: species or system human. The following applies: first series (Table 2), not DMSO normalised. Here is the method:
as §1, §2, §3, §4, §5

The target of data set [6] is TICA0053 Fab. The data set can be described thus: HTRF competition binding selectivity assay, TICA0053 His-Fab. Also noted: species or system human. The conditions noted are these: first series (Table 2), not DMSO normalised. Here is the method: as §1, §2, §3, §4, §5
Data set [7] in a line: Equilibrium affinity by KinExA3200, ticagrelor. It is filed as binding. The conditions noted are these: modifications in VL CDR3 or VH CDR3 only. Here is the method: The affinity of anti-ticagrelor/TAM Fabs generated in Example 5 was determined using the KinExA3200. For the KinExA affinity measurement, beads (600 mg Azlactone beads) were first prepared by reacting them overnight with 1 mg streptavidin in 50 mM NaHCO3. Following blocking with 2 changes of Tris buffer (1M Tris pH 8.7, 10 mg/mL BSA) the streptavidin coated beads were resuspended in a total volume of 8 mL. Beads (1.33 mL, equivalent to 100 mg original dry Azlactone beads) were washed completely with PBS, then allowed to bind to approximately 2.5 μg biotin-ticagrelor in 1 mL PBS for 10 minutes with occasional agitation. […]
All assays were performed at room temperature. […] Bound antibody was then detected using DyLight649 labelled mouse anti-human Heavy and Light chain antibody. Sample volume (300-1300 μL) and injection time (90-120 s) varied with concentration, and 2 -3 reads were varied out per sample. The data were analysed using the KinExA n-Curve Analysis software. Using the Constant Partner analysis the equilibrium KD for the anti-ticagrelor Fab antibodies was determined.
As in the prior Example, Fabs were allowed to equilibrate at room temperature in the presence of either unmodified ticagrelor or TAM at concentrations from 20-fold excess. […] Bound antibody was then detected using a DyLight649 labelled mouse anti-human Heavy and Light chain detection antibody. […]

The target in data set [8] is TICA0159 IgG binding to biotinylated ticagrelor. The data set can be described thus: Second generation HTRF epitope competition assay. The following applies: for IC50: Fab, 16 nM TICA0159 IgG, 1 nM biotinylated ticagrelor; for Fold Improved: IC50 relative to parent TICA0072 Fab. Here is the method: Purified parent TICA0072 (scFv or Fab) was used as a benchmark in all experiments such that improvements in IC50 measured with optimized variants (scFv or Fab) could be expressed as fold improvements over parent TICA0072. Total Binding Control Wells contained all assay components except that 5 ul assay buffer was added in place of the purified scFv or Fab sample. Negative Binding control wells contained all of the components of the Total Binding control wells except that 5 ul of assay buffer was added in place of the TICA0072 IgG.
In both single point HTS and multipoint IC50 profiling versions of the assay. plates were incubated for 3 hrs at RT before being read on an Envision plate reader using a standard HTRF read protocol in which samples are excited at 337 nm and time resolved fluorescence emission is measured at both 620 nm and 665 nM.
Raw 665 nm and 620 nm counts were used to calculate Delta F (%) and % Specific Binding according to the equations described earlier in Assays 1 and 4, respectively. For multipoint secondary profiling experiments IC50 values were determined using Graphpad Prism software using sigmoidal dose response (variable slope) curve fitting (4 parameter logistic equation).
This assay was used only in multipoint IC50 profiling format (as opposed to HTS format) and was performed essentially identically to the method given in Assay 5 (above) for multipoint IC50 profiling of purified Fab variants in the parent TICA0072 IgG based epitope competition assay. The only difference being that TICA0159 IgG was used in place of TICA0072 IgG at the appropriate point in the assay set up but at the same 16nM final assay concentration. In all other respects this assay was performed exactly as described above in the multipoint secondary profiling version for purified Fab.

Setting [9] is: first series (Table 2), not DMSO normalised.
The mark [10] stands for this setting: first series (Table 2), not DMSO normalised, read-out: IC50 (uM) for inhibition of biotinylated ticagrelor binding to TICA0049 his-Fab.
[11] abbreviates: second series (Table 3), DMSO normalised.
[12] abbreviates: second series (Table 3), DMSO normalised, read-out: IC50 in competition binding selectivity studies, TICA0049.

With `CC(=O)NC[C@H]1CN(c2ccc(N3CCOCC3)c(F)c2)C(=O)O1` [Linezolid], the “IC50 (uM) for inhibition of biotinylated ticagrelor binding to TICA0049 his-Fab” value in data set [1] (setting [9]) was “partial competitive inhibition”. Further, the IC50 was determined as 467 µM in data set [1] (setting [10]) and 902 µM in data set [1] (setting [12]). Further, in data set [1] (setting [11]), the “IC50 in competition binding selectivity studies, TICA0049” value is “weak inhibition”.
In the case of `CCCSc1nc(N)c2nnn(C3CC(OCCO)C(O)C3O)c2n1` (centres unmarked) [TIM], in data set [2], the detectability in circulation result is “undetectable after 8 hours” and the “fraction of the parent ticagrelor” value is listed as under 10%.
`NS(=O)(=O)c1cc2c(cc1Cl)NC(C1CC3C=CC1C3)NS2(=O)=O` (centres unmarked) [Cyclothiazide]: the IC50 in data set [3] was over 1000 µM.
Turning to `Nc1ncnc2c1ncn2[C@@H]1O[C@H](COP(=O)(O)OP(=O)(O)OP(=O)(O)O)[C@@H](O)[C@H]1O` [ATP, adenosine triphosphate], the “IC50 in competition binding selectivity studies, TICA0049” value in data set [1] (setting [11]) is recorded as “trace of inhibition”. Further, in data set [4], the “IC50 in competition binding selectivity studies, TICA0072” value is listed as “trace of inhibition”.
Regarding `Nc1ncnc2c1ncn2[C@@H]1O[C@H](COP(=O)(O)OP(=O)(O)O)[C@@H](O)[C@H]1O` [ADP, adenosine diphosphate], in data set [1] (setting [11]), the “IC50 in competition binding selectivity studies, TICA0049” value is reported as “trace of inhibition”. Besides, the “IC50 in competition binding selectivity studies, TICA0072” value in data set [4] is “trace of inhibition”.
Turning to `Nc1ncnc2c1ncn2[C@@H]1O[C@H](CO)[C@@H](O)[C@H]1O` [Adenosine], the “IC50 in competition binding selectivity studies, TICA0049” value in data set [1] (setting [11]) is “trace of inhibition”. Further, the “IC50 in competition binding selectivity studies, TICA0072” value in data set [4] is recorded as “trace of inhibition”.
Regarding `CCCC(=O)Nc1ncnc2c1ncn2[C@@H]1O[C@@H]2COP(=O)(O)O[C@H]2[C@H]1OC(=O)CCC` [Bucladesine], in data set [1] (setting [11]), the “IC50 in competition binding selectivity studies, TICA0049” value is “weak inhibition”. For the same molecule, the IC50 in data set [1] (setting [12]) was 865 µM.
As for `CSCCNc1nc(SCCC(F)(F)F)nc2c1ncn2[C@@H]1O[C@H](COP(=O)(O)OP(=O)(O)C(Cl)(Cl)P(=O)(O)O)[C@@H](O)[C@H]1O` [Cangrelor], the “IC50 (uM) for inhibition of biotinylated ticagrelor binding to TICA00l0 his-Fab” value in data set [5] is listed as “competitive inhibition”. For the same molecule, the IC50 in data set [5] (read-out: IC50 (uM) for inhibition of biotinylated ticagrelor binding to TICA00l0 his-Fab) came to 102 µM; in data set [1] (setting [10]), 208 µM; in data set [1] (setting [12]), 188 µM; in data set [6] (read-out: IC50 (uM) for inhibition of biotinylated ticagrelor binding to TICA0053 his-Fab), 17.5 µM. In addition, the “IC50 (uM) for inhibition of biotinylated ticagrelor binding to TICA0049 his-Fab” value in data set [1] (setting [9]) is recorded as “competitive inhibition”. Besides, the “IC50 in competition binding selectivity studies, TICA0049” value in data set [1] (setting [11]) is reported as “significant inhibition”. Further, in data set [6], the “IC50 (uM) for inhibition of biotinylated ticagrelor binding to TICA0053 his-Fab” value was “competitive inhibition”.

B1: TICA0152: VL CDR3 variant of TICA0072; VH SEQ ID NO:62, VL SEQ ID NO:67 (antibody, listed as Homo sapiens, V domains shown)
VH: QVQLQESGAEVKKPGSSVRVSCKASGGTFDSYSIHWVRQAPGQGLEWMGGIIPAFGTLSSAQDFQARVTISADKSTSTAYMELSGLRSEDTAVYYCARGSHLYDFWSASHPPNDALAIWGQGTLVTVSS
VL: QSVVTQPPSVSAAPGQKVTISCSGSNSDIGNNYVSWYQQLPGTAPKLLIYDNNKRPSGIPDRFSGSKSGTSATLAITGLQAGDEADYYCGTWLYDRAVGLFGGGTKVTVL
With B1, the “fold improvement over TICA0072” value in data set [7] was 200 fold. Further, in data set [8], the half-maximal inhibitory concentration (IC50) amounted to 73.5 nM and the “Fold Improved” value is listed as 23.3.

B2: TICA0162: VH CDR3 variant of TICA0072; VH SEQ ID NO:52, VL SEQ ID NO:57 (antibody, listed as Homo sapiens, V domains shown)
VH: B1 VH with H101F, L102D, D104Y
VL: B1 VL with L93D, Y94I, D95S, R96L, A97S, V98A
Consider B2, for which the “fold improvement over TICA0072” value in data set [7] was determined as 50 fold. Also, in data set [8], the IC50 is 16.3 nM and the “Fold Improved” value stood at 105.2.
